According to patent US20050214285A1, “Epitopes or mimotopes derived from the C-epsilon-3 or C-epsilon-4 domains of IgE, antagonists thereof, and their therapeutic uses” (SmithKline Beecham Biologicals, s.a. and Peptide …, priority 1999, published 2005):
Where “and” joins values, the source holds several entries; their conditions need not be identical. Equal entries are not always repeated. Positions of bridges follow the written chain, without caps; N, C: chain ends. Residues, ends and D or L forms follow the SMILES beside them. No end group written: not given here.

B1: recombinant FcεRIα ectodomain (receptor, UniProt P12319 26-205, looked up)
chain: VPQKPKVSLNPPWNRIFKGENVTLTCNGNNFFEVSSTKWFHNGSLSEETNSSLNIVNAKFEDSGEYKCQHQQVNESEPVYLEVFSDWLLLQASAEVVMEGQPLFLRCHGWRNWDVYKVIYYKDGEALKYWYENHNISITNATVEDSGTYYCTGKVWQLDYESEPLNITVIKAPREKYWLQ
notes: extracellular domain; also called FcεR1α ectodomain; FcεR1α

Experiments:
human IgE = experiment: Immunisation of mice with peptide expressing phage; format: in vivo, mouse; details: peptide expressing phage used as immunogen
PTmAb0005 [1] = experiment: BIAcore affinity to PTmAb0005; format: binding; details: read-out: PTmAb BIAcore KD^Rel (μM) PTmAb0005
Source text: (§1) This involved a DNA sub-cloning transfer from the major coat protein (gVIIIp) filamentous phage display vector to a lower copy number minor phage coat protein (gIIIp) display vector with a random PCR step. […] Included in the tables are ranking orders and also BIAcore affinities where available.
(§2) Thus indicating the importance of correct presentation of the peptides of the present invention to adopt a shape which closely resembles the native target in the context of the whole IgE molecule. [drawing]

PTmAb0011 [2] = experiment: Phage display ranking of peptide ligands for PTmAb0011; format: binding, mouse; details: IgEC67 mutants (Table 8)
Source text: Phage display libraries were used to map the binding sites of the monoclonal antibodies using three different phage libraries, displaying either the XCX15, XCX10 or XAX10 peptide sequence (where X is any amino acid) at the N-terminus of the phage gVIIIp. Tables 6 and 7 show the results of selecting for peptide ligands with the anti human IgE monoclonal antibodies […]. […]
as §1

PTmAb0011 [3] = experiment: BIAcore affinity to PTmAb0011; format: binding, mouse; details: read-out: PTmAb BIAcore KD^Rel (μM) PTmAb0011
Source text: as §1, §2

PTmAb0005 [4] = experiment: Phage display ranking of peptide ligands for PTmAb0005; format: binding
[5] = tested on: basophils from freshly harvested peripheral blood from allergic patients
Source text: Several dilutions of complete sera or IgG purified from conjugate immunised mice can be tested in presence of basophils from freshly harvested peripheral blood from allergic patients.

biotinylated peptide = experiment: Anti-peptide ELISA of sera from immunised mice; format: in vivo, BalbC mice; details: for Anti peptide immune responses, Mid point titres, Av / Anti peptide immune responses, Mid point titres, GM / Anti peptide immune responses/mouse, Mid point titres, mouse 1 / Anti peptide immune responses/mouse, Mid point titres, mouse 2 / Anti peptide immune responses/mouse, Mid point titres, mouse 3 / Anti peptide immune responses/mouse, Mid point titres, mouse 4 / Anti peptide immune responses/mouse, Mid point titres, mouse 5 / Anti peptide immune responses/mouse, Mid point titres, mouse 6 / Anti peptide immune responses/mouse, Mid point titres, mouse 7 / Anti peptide immune responses/mouse, Mid point titres, mouse 8 / Anti peptide immune responses/mouse, Mid point titres, mouse 9 / Anti peptide immune responses/mouse, Mid point titres, mouse 10: conjugated to BSA, 14 days after third vaccination; for Anti peptide immune responses, Mid point titres, Av: average; for Anti peptide immune responses, Mid point titres, GM: geomean
Description: The anti-peptide and anti-carrier immune responses were investigated using an ELISA technique outlined below. Microtiterplates (Nunc) are coated with the specific antigen in PBS (4° overnight) with either: Streptavidin at 2 μg/ml (followed by incubation with biotinylated peptide (1 μM) for 1 hour at 37° C.), Wash 3×PBS-Tween 20 0.1%. Saturate plates with PBS-BSA 1%-Tween 20 0.1% (Sat buffer) for 1 hr at 37°. Add 1° antibody=sera in two-step dilution (in Sat buffer), incubate 1 hr 30 minutes at 37°. Wash 3×. Add 2° anti-mouse Ig (or anti-mouse isotype specific monoclonal antibody) coupled to HRP. Incubate 1 hr at 370. Wash 5×. Reveal with TMB (BioRad) for 10 minutes at room temperature in the dark. Block reaction with 0.4N H2SO4.
(§3) The conjugates comprising the mimotope P15 (25 μg protein/dose), described in 1.4, were administered into groups of 10 BalbC mice, adjuvanted with and oil in water emulsion containing QS21 and 3D-MPL described in WO 95/17210 . Boosting was be performed on day 21 and on day 42 and sera can be harvested on day 42 and 56. The immune response anti-peptide and anti-plate bound IgE was followed using methods described in Example 1.

human chimaeric IgE = experiment: IgE plate bound ELISA: anti-human IgE reactivity in mouse serum; format: in vivo; details: for anti-IgE antibody response when presented on carriers: in vivo
Description: ELISA plates are coated with human chimaeric IgE at 1 μg/ml in pH 9.6 carbonate/bicarbonate coating buffer for 1 hour at 37° C. or overnight at 4° C. Non-specific binding sites are blocked with PBS/0.05% Tween-20 containing 5% w/v Marvel milk powder for 1 hour at 37° C. […] Polyclonal serum binding is detected with goat anti-mouse IgG-Biotin (1/2000) followed by Streptavidin-HRP (1/1000). Conjugated antibody is detected with TMB substrate at 450nm. A standard curve of PTmAb0011 is included on each plate so that the anti-IgE reactivity in serum samples can be calculated in μg/ml.
as §3
The mice were bled after the last immunisation and tested for anti-IgE reactivity in the IgE plate bound ELISA. The individual, average (Av), geomean (GM), results are summarised below (SD=standard deviation).
These vaccines were administered into groups of 10 BalbC mice, and boosting was be performed on day 14 and on day 28 and sera was harvested on day 42. The immune response to anti-plate bound IgE and receptor orientated IgE, was then followed using the techniques described in example 1.4. Also, the activity of the antiserum in the inhibition of histamine release from allergic basophils was measured in the techniques described in 1.5.

allergic human basophils = experiment: Histamine release inhibition from allergic human basophils; format: cell-based; details: antiserum of an individual immunised mouse, dilution 1/30
Description: Blocking activity of anti-P15 antibodies in the antiserum was evaluated by the measuring of the inhibition of the histamine release induced by the allergen. Histamine release and inhibition was measured as described in example 3. As P15 is a mimotope of P1, PTmAb0011 was used as a control as it is known to bind to the same epitope (P1).

Cε2-4 = target: T1, Cε2-4 (human, UniProt P01854-1 106-428); experiment: ELISA, graded
T1 construct: also called WT cε2-4; cε2-4 fragment

[6] = BalbC mice, 25 μg protein/dose, day 14 post third vaccination

T1 sequence (P01854 other isoform, or with tags, fused parts or gaps limits assumed): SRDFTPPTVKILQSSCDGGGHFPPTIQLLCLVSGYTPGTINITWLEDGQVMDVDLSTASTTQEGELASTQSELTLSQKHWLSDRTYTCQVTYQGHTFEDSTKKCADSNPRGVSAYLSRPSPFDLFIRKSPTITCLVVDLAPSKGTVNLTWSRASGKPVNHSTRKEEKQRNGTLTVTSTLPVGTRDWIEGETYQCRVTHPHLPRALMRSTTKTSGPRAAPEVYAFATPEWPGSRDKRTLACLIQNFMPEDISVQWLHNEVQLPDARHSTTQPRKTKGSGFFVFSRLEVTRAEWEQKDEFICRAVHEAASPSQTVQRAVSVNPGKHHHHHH

Molecule | anaphylactogenicity of the induced antiserum [5] | Anti peptide immune responses, Mid point titres, Av (biotinylated peptide) | Anti peptide immune responses, Mid point titres, GM (biotinylated peptide) | Anti peptide immune responses/mouse, Mid point titres, mouse 1 (biotinylated peptide) | Anti peptide immune responses/mouse, Mid point titres, mouse 2 (biotinylated peptide) | Anti peptide immune responses/mouse, Mid point titres, mouse 3 (biotinylated peptide) | Anti peptide immune responses/mouse, Mid point titres, mouse 4 (biotinylated peptide) | Anti peptide immune responses/mouse, Mid point titres, mouse 5 (biotinylated peptide) | Anti peptide immune responses/mouse, Mid point titres, mouse 6 (biotinylated peptide) | Anti peptide immune responses/mouse, Mid point titres, mouse 7 (biotinylated peptide) | Anti peptide immune responses/mouse, Mid point titres, mouse 8 (biotinylated peptide) | Anti peptide immune responses/mouse, Mid point titres, mouse 9 (biotinylated peptide) | Anti peptide immune responses/mouse, Mid point titres, mouse 10 (biotinylated peptide) | anti-IgE antibody response when presented on carriers (human chimaeric IgE) | also measured
CC[C@H](C)[C@@H]1NC(=O)[C@H](Cc2ccccc2)NC(=O)[C@@H](N)CSSC[C@@H](C(=O)N2CCC[C@H]2C(=O)N[C@@H](CCCNC(=N)N)C(=O)N[C@@H](CCC(=O)O)C(=O)O)NC(=O)[C@H](CC(C)C)NC(=O)[C@H](CCC(=O)O)NC(=O)[C@H](CC(C)C)NC(=O)[C@H](CC(=O)O)NC(=O)[C@H](C)NC(=O)[C@H](CCSC)NC(=O)[C@H](CCC(N)=O)NC(=O)[C@H](CCCCN)NC(=O)[C@H](CC(N)=O)NC1=O [IgEC67-8] (H-CFINKQMADLELCPRE-OH; disulfide 1-13) |  |  |  |  |  |  |  |  |  |  |  |  |  |  | anti-human IgE response in mice (human IgE): capable of inducing an anti-human IgE response in mice; Kd (PTmAb0005 [1]): 0.0094 µM; PTmAb Rank 0011 (PTmAb0011 [2]): 2.4; Kd (PTmAb0011 [3]): 0.066 µM; Rel. Rank A (PTmAb0005 [4]; IgEC67-8 mutants (Table 9)): 1.00; Rel. Rank B (PTmAb0005 [4]; IgEC67-8 mutants (Table 9)): 1.00; PTmAb Rank 0005 (PTmAb0005 [4]; IgEC67 mutants (Table 8)): 4.36
CSQKHWLSDRT-NH2 [Peptide P17] | non anaphylactogenic | 5446 | 4656 | 100 | 4349 | 2850 | 3434 | 6133 | 2231 | 5085 | 2991 | 13070 | 8874 | strong anti-IgE antibody responses | 
CSTTQEGELA-NH2 [Peptide P16] | non anaphylactogenic | 1882 | 1478 | 1891 | 649 | 1299 | 2349 | 591 | 1474 | 4605 | 918 | 4177 | 865 | strong anti-IgE antibody responses | 
P15-BSA: P15 (CLEDGQVMDVDLL) conjugated to BSA (CLEDGQVMDVDLL-NH2; also: conjugated to BSA) [Peptide P15-BSA] | Neither antiserum generated with P15-BSA or P15-PD was shown to be anaphylactogenic |  |  |  |  |  |  |  |  |  |  |  |  |  | % inhibition of histamine release (allergic human basophils): 67% and 57%; Anti-peptide responses (Mid point titre) Average (biotinylated peptide; [6]): 49591; Anti-peptide responses (Mid point titre) Geomean (biotinylated peptide; [6]): 48719; Anti-IgE responses (μg/ml (PTmAb0011)) Average (human chimaeric IgE; [6]): 2.2 µg/mL; Anti-IgE responses (μg/ml (PTmAb0011)) Geomean (human chimaeric IgE; [6]): 1.0 µg/mL
B1 |  |  |  |  |  |  |  |  |  |  |  |  |  |  | binding result (Cε2-4): binds
